Data reported in patent US7138361B2, “Herbicidal heterocycles” (E. I. du Pont de Nemours and Company, priority 2000, dated 2006).

What was measured:
Format in all cases: in vivo
[1] = tested on: Surinam grass (Brachiaria decumbens); test: Test C preemergence
How it was run: (§1)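 Visual injury scores of 0–100, with 100 meaning complete control, were given relative to controls after 12–14 days in the greenhouse. Treatments used a surfactant-containing non-phytotoxic solvent formulation, sprayed on seeded pots preemergence or on 1–4-leaf plants of 2–18 cm postemergence.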

kochia (Kochia scoparia) = test: Test C preemergence
How it was run: as §1

[2] = tested on: woolly cupgrass (Eriochloa villosa); test: Test C preemergence
How it was run: as §1

[3] = tested on: bermudagrass (Cynodon dactylon); test: Test C preemergence
How it was run: as §1

Nightshade [4] = test: Test C preemergence
[5] = tested on: velvetleaf (Abutilon theophrasti); test: Test C preemergence
How it was run: as §1

[6] = tested on: giant foxtail (Setaria faberii); test: Test C preemergence
How it was run: as §1

corn (Zea mays) = test: Test C preemergence
How it was run: as §1

[7] = tested on: common ragweed (Ambrosia elatior); test: Test C preemergence
How it was run: as §1

[8] = tested on: yellow nutsedge (Cyperus esculentus); test: Test C preemergence
How it was run: as §1

[9] = tested on: crabgrass (Digitaria sanguinalis); test: Test C preemergence
How it was run: as §1

soybean (Glycine max) = test: Test C preemergence
How it was run: as §1

[10] = tested on: lambsquarters (Chenopodium album); test: Test C preemergence
How it was run: as §1

[11] = tested on: morningglory (Ipomoea hederacea); test: Test C preemergence; conditions: for Plant response rating, Morningglory: scale 0 to 100, 0 no effect, 100 complete control
How it was run: as §1

[12] = tested on: goosegrass (Eleusine indica); test: Test C preemergence
How it was run: as §1

[13] = tested on: pigweed (Amaranthus retroflexus); test: Test C preemergence
How it was run: as §1

Sunflower = test: Test C preemergence; conditions: Rate 125 g/ha; scale 0 to 100, 0 no effect, 100 complete control
[14] = tested on: cocklebur (Xanthium strumarium); test: Test C preemergence
How it was run: as §1

[15] = tested on: johnsongrass (Sorghum halepense); test: Test C preemergence
How it was run: as §1

Nightshade [16] = test: Test C preemergence; conditions: Rate 500 g/ha, visual evaluation after 12 to 14 days
[17] = tested on: duck salad (Heteranthera limosa); test: Test C flooded paddy test; conditions: for Plant response rating, Ducksalad: scale 0 to 100 (0 no effect, 100 complete control)
How it was run: (§2)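 Plants were grown to the 2-leaf stage under flooded paddy conditions and treated. They were then kept in a greenhouse for 12 to 14 days and visually rated against untreated controls on a 0–100 scale, where 0 is no effect and 100 is complete control.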

[18] = tested on: smallflower flatsedge (Cyperus difformis); test: Test C flooded paddy test; conditions: for Plant response rating, Flatsedge: scale 0 to 100 (0 no effect, 100 complete control)
How it was run: as §2

rice (Oryza saliva) = test: Test C flooded paddy test; conditions: for Plant response rating, Rice: scale 0 to 100 (0 no effect, 100 complete control)
How it was run: as §2

[19] = Rate 125 g/ha, scale 0 to 100, 0 no effect, 100 complete control
[20] = preemergence, Rate 62 g/ha, scale 0 to 100
[21] = preemergence, Rate 500 g/ha, visual evaluation after 12 to 14 days
[22] = preemergence, Rate 250 g/ha, scale 0 to 100, 0 no effect, 100 complete control
[23] = Flooded Paddy, Rate 500 g/ha, scale 0 to 100, 0 no effect, 100 complete control
[24] = flooded paddy test, Rate 125 g/ha
[25] = flooded paddy test, Rate 250 g/ha
[26] = flooded paddy test, Rate 62 g/ha, visually evaluated after 12 to 14 days, 0 = no effect, 100 = complete control

CCC(CC)c1ccn(C2CCN(c3ccc(F)c(C(F)(F)F)c3)C2=O)n1 (stereo not drawn) [Compound 144] was tested, and the “Plant response rating, Surinam grass” value [1, 19] was 0, the “Plant response rating, Surinam grass” value [1, 20] was 0 and the “Plant response rating (0 to 100), Surinam grass” value [1, 21] was 90. The “Plant response rating, Surinam grass” value [1, 22] was 0, the “Plant response rating, Kochia” value (kochia (Kochia scoparia); [19]) was 100 and the “Plant response rating, Kochia” value (kochia (Kochia scoparia); [20]) was 90. For the same molecule, the “Plant response rating (0 to 100), Kochia” value (kochia (Kochia scoparia); [21]) was 100, the “Plant response rating, Kochia” value (kochia (Kochia scoparia); [22]) was 100 and the “Plant response rating, Cupgrass, Woolly” value [2, 19] was 100. For the same molecule, the “Plant response rating, Cupgrass, Woolly” value [2, 20] was 100, the “Plant response rating (0 to 100), Cupgrass, Woolly” value [2, 21] was 100 and the “Plant response rating, Cupgrass, Woolly” value [2, 22] was 100. For the same molecule, the “Plant response rating, Bermudagrass” value [3, 19] was 100, the “Plant response rating, Bermudagrass” value [3, 20] was 100 and the “Plant response rating (0 to 100 where 0 is no effect and 100 is complete control), Bermudagrass” value [3, 21] was 100. For the same molecule, the “Plant response rating, Bermudagrass” value [3, 22] was 100, the “Plant response rating, Nightshade” value (Nightshade [4]; Rate 62 g/ha, scale 0 to 100) was 100 and the “Plant response rating, Nightshade” value (Nightshade [4]; [19]) was 100. For the same molecule, the “Plant response rating, Nightshade” value (Nightshade [4]; Rate 250 g/ha, scale 0 to 100, 0 no effect, 100 complete control) was 100, the “Plant response rating, Velvetleaf” value [5, 19] was 0 and the “Plant response rating, Velvetleaf” value [5, 20] was 0. For the same molecule, the “Plant response rating (0 to 100), Velvetleaf” value [5, 21] was 20, the “Plant response rating, Velvetleaf” value [5, 22] was 20 and the “Plant response rating, Foxtail, Giant” value [6, 19] was 100. For the same molecule, the “Plant response rating, Foxtail, Giant” value [6, 20] was 100, the “Plant response rating (0 to 100), Foxtail, Giant” value [6, 21] was 100 and the “Plant response rating, Foxtail, Giant” value [6, 22] was 100. The “Plant response rating, Corn” value (corn (Zea mays); [19]) was 50, the “Plant response rating, Corn” value (corn (Zea mays); [20]) was 30 and the “Plant response rating (0 to 100), Corn” value (corn (Zea mays); [21]) was 60. For the same molecule, the “Plant response rating, Corn” value (corn (Zea mays); [22]) was 50, the “Plant response rating, Ragweed, Common” value [7, 19] was 0 and the “Plant response rating, Ragweed, Common” value [7, 20] was 0. For the same molecule, the “Plant response rating (0 to 100), Ragweed, Common” value [7, 21] was 50, the “Plant response rating, Ragweed, Common” value [7, 22] was 30 and the “Plant response rating, Nutsedge” value [8, 19] was 0. For the same molecule, the “Plant response rating, Nutsedge” value [8, 20] was 0, the “Plant response rating (0 to 100), Nutsedge” value [8, 21] was 0 and the “Plant response rating, Nutsedge” value [8, 22] was 0. The “Plant response rating, Crabgrass” value [9, 19] was 100, the “Plant response rating, Crabgrass” value [9, 20] was 100 and the “Plant response rating (0 to 100), Crabgrass” value [9, 21] was 100. The “Plant response rating, Crabgrass” value [9, 22] was 100, the “Plant response rating, Soybean” value (soybean (Glycine max); [19]) was 50 and the “Plant response rating, Soybean” value (soybean (Glycine max); [20]) was 50. The “Plant response rating (0 to 100), Soybean” value (soybean (Glycine max); [21]) was 70, the “Plant response rating, Soybean” value (soybean (Glycine max); [22]) was 70 and the “Plant response rating, Lambsquarters” value [10, 19] was 100. The “Plant response rating, Lambsquarters” value [10, 20] was 100, the “Plant response rating (0 to 100), Lambsquarters” value [10, 21] was 100 and the “Plant response rating, Lambsquarters” value [10, 22] was 100. The “Plant response rating, Morningglory” value ([11]; Rate 125 g/ha) was 0, the “Plant response rating (0 to 100), Morningglory” value [11, 21] was 30 and the “Plant response rating, Morningglory” value ([11]; preemergence, Rate 250 g/ha) was 30. For the same molecule, the “Plant response rating, Goosegrass” value [12, 19] was 100, the “Plant response rating, Goosegrass” value [12, 20] was 100 and the “Plant response rating (0 to 100), Goosegrass” value [12, 21] was 100. The “Plant response rating, Goosegrass” value [12, 22] was 100, the “Plant response rating, Pigweed” value [13, 19] was 100 and the “Plant response rating, Pigweed” value [13, 20] was 100. The “Plant response rating (0 to 100), Pigweed” value [13, 21] was 100, the “Plant response rating, Pigweed” value [13, 22] was 100 and the “Plant response rating, Sunflower” value (Sunflower) was 40. The “Plant response rating, Cocklebur” value [14, 19] was 60, the “Plant response rating, Cocklebur” value [14, 20] was 50 and the “Plant response rating (0 to 100), Cocklebur” value [14, 21] was 60. The “Plant response rating, Cocklebur” value [14, 22] was 60, the “Plant response rating, Johnsongrass” value [15, 19] was 90 and the “Plant response rating, Johnsongrass” value [15, 20] was 0. For the same molecule, the “Plant response rating (0 to 100), Johnsongrass” value [15, 21] was 100, the “Plant response rating, Johnsongrass” value [15, 22] was 100 and the “Plant response rating (0 to 100), Nightshade” value (Nightshade [16]) was 100. For the same molecule, the “Ducksalad plant response rating” value [17, 23] was 100, the “Plant response rating, Ducksalad” value [17, 24] was 50 and the “Plant response rating, Ducksalad” value [17, 25] was 95. The “Plant response rating (scale 0 to 100), Ducksalad” value [17, 26] was 50, the “Flatsedge plant response rating” value [18, 23] was 95 and the “Plant response rating, Flatsedge” value [18, 24] was 85. The “Plant response rating, Flatsedge” value [18, 25] was 95, the “Plant response rating (scale 0 to 100), Flatsedge” value [18, 26] was 85 and the “Rice plant response rating” value (rice (Oryza saliva); [23]) was 75. For the same molecule, the “Plant response rating, Rice” value (rice (Oryza saliva); [24]) was 20, the “Plant response rating, Rice” value (rice (Oryza saliva); [25]) was 45 and the “Plant response rating (scale 0 to 100), Rice” value (rice (Oryza saliva); [26]) was 20.
